Laboratory results from patent publication US4225619A, “Substituted fluoracylresorcinols” (Boehringer Ingelheim GmBH, priority 1976, dated 1980).
Values after ≈ are worked out from the molar mass of the structure shown.

Key:
[1] = system: Streptococcus Aronson; assay: Serial dilution test; type: cell-based; conditions: for MIC: Streptococcus, 18-20 hours at 37° C., read-out: MIC, S.D.T., Streptococcus Aronson
Procedure: (§1) The inhibitory effect on bacteria and fungi was examined by the serial dilution test and the agar diffusion test (hole-test). As bacteria were used: Staphylococcus aureus SG 511, Streptococcus Aronson, Streptococcus pyogenes At CC 86 68; as fungi: Candida albicans AT CC 10231, Trichophyton mentagrophytes AT CC 9129 and Aspergillus niger.
(§2) 2. Glucose broth: for Sc. Aronson and St. pyogenes Recipe see meat extract broth. After sterilization 1 weight percent of glucose is added as a sterile 50% solution.
(§3) The age of the primary cultures is 24 hours for bacteria and 14 days for fungi. The standardization of the suspension of microorganisms is effected using a photometer according to Eppendorf (test tube .phi.14 mm, filter 546 nm) and a suspension for comparison consisting of barium sulfate, this suspension being created by adition of 3.0 ml of 1% barium chloride solution to 97 ml of 1% sulfuric acid. After the standardization the bacteria were further diluted to a concentration of 1:1000 by means of sodium chloride solution, the fungi were used in an undiluted state.
(§4) 40 mgm of the substance were put into a 10 ml measuring flask and filled up to the mark with the solvent (corresponds to a dilution of 1:250=4000 μg/ml). The further dilution series was standardized with distilled water or the respective solvent and the following substance concentrations were prepared: 1000; 250; 62.5 μg/ml.
(§5) The tubes were filled with 4.9 ml of the corresponding liquid nutrient medium. Then 0.1 ml of the substance dilution prepared above was added to each tube, so that the mentioned final concentrations were present. Finally each tube was inoculated with 0.1 ml of the standardized suspension of microorganisms. Control tests merely using the solvent are to be carried out simultaneously.
(§6) Bacteria were incubated at 37° C. for 18-20 hours and fungi at 27° C. for 7 days.
(§7) The measurement is carried out macroscopically defining the minimal inhibitory concentration (the lowest still microbiostatically effective concentration).

[2] = system: Streptococcus pyogenes At CC 86 68; assay: Serial dilution test; type: cell-based; conditions: Streptococcus pyogenes, ATCC8668, 18-20 hours at 37° C., read-out: MIC, S.D.T., Streptococcus pyogenes
Procedure: as §1, §2, §3, §4, §5, §6, §7

[3] = system: Corynebacterium acnes; assay: Serial dilution test for Corynebacterium acnes; type: cell-based; conditions: for MIC: Cutibacterium acnes, 37° C. for 48 hours, read-out: MIC, S.D.T., Corynebacterium acnes
Procedure: Serial dilution test for Corynebacterium acnes and Pityrosporum ovale Nutrient medium
For Corynebacterium acnes: thioglycolate-broth for Pityrosporum ovale: Littmann's broth, 5 ml per tube.
Suspension of microorganisms in 0.9% sodium chloride solution, standardized using a photometer according to Eppendorf by means of a suspension for comparison consisting of barium sulfate, for Corynebacterium acnes in a dilution of 1:100, for Pityrosporum ovale in an undiluted state. 0.1 ml of the suspensions was used per test tube. Dimethyl sulfoxide served as a solvent for the substances.
The suspension with Corynebacteria acnes was incubated at 37° C. for 48 hours, the suspension of Pityrosporum ovale at 27° C. for 7 days. The reading was effected by macroscopic evaluation of the growth of microorganisms and registration of the minimal inhibitory concentration.

[4] = system: Staphylococcus aureus SG 511; assay: Serial dilution test; type: cell-based; conditions: Staphylococcus aureus, SG511, 18-20 hours at 37° C., read-out: MIC, S.D.T., Staphylococcus aureus SG 511
Procedure: as §1
1. Meat extract broth: for St. aureus SG 511
as §3, §4, §5, §6, §7

[5] = system: Streptococcus Aronson; assay: Agar diffusion test (hole-test); type: cell-based; conditions: 18-20 hours at 37° C., read-out: MIC, A.D.T., Streptococcus Aronson
Procedure: as §1
(§8) 2. Glucose agar: for Sc. Aronson and St. pyogenes Recipe see meat extract agar. After sterilization 1 weight percent of glucose is added as a sterile 50% solution.
as §3, with “addition” for “adition”, “St. aureus SG 511 was” for “the bacteria were further”, “diluted” for “diluted to a concentration of”, “1:1000 and Sc. pyogenes and Aronson 1:100” for “1:1000”, “solution. The” for “solution, the”
(§9) 40 mgm of the substance were put into a 10 ml measuring flask and filled up to the mark with the solvent (corresponds to a dilution of 1:250=4000 μg/ml).
(§10) The dilutions to the concentrations under test were effected with distilled water or the respective solvent.
(§11) 19 ml of the nutrient medium were filled into sterile Petri dishes of a diameter of 8 cm and dried. Subsequently the agar plates were charged with 4 ml of seed agar. 100 ml of seed agar contain 1.25 ml of the suspension of microorganisms, an agar plate thus containing 0.05 ml of the suspension of microorganisms. After solidification of the agar, 5 holes of a diameter of 5 mm were punched into the plates and filled with 0.05 ml of the correspondingly concentrated substance solution.
(§12) Control tests merely using the solvent are to be carried out simultaneously.
as §6
(§13) The diameter of the area of inhibition in mm was measured after having deducted the diameter of the hole.

[6] = system: Streptococcus pyogenes At CC 86 68; assay: Agar diffusion test (hole-test); type: cell-based; conditions: ATCC8668, 18-20 hours at 37° C., read-out: MIC, A.D.T., Streptococcus pyogenes
Procedure: as §1, §8
as §3, with “addition” for “adition”, “St. aureus SG 511 was” for “the bacteria were further”, “diluted” for “diluted to a concentration of”, “1:1000 and Sc. pyogenes and Aronson 1:100” for “1:1000”, “solution. The” for “solution, the”
as §9, §10, §11, §12, §6, §13

[7] = system: Staphylococcus aureus SG 511; assay: Agar diffusion test (hole-test); type: cell-based; conditions: SG511, 18-20 hours at 37° C., read-out: MIC, A.D.T., Staphylococcus aureus SG 511
Procedure: as §1
1. Meat extract agar: for St. aureus SG 511
as §3, with “addition” for “adition”, “St. aureus SG 511 was” for “the bacteria were further”, “diluted” for “diluted to a concentration of”, “1:1000 and Sc. pyogenes and Aronson 1:100” for “1:1000”, “solution. The” for “solution, the”
as §9, §10, §11, §12, §6, §13

[8] = system: HeLa-cell culture; assay: Inhibition of HeLa cell cultures; type: cell-based; conditions: Homo sapiens, 72 h, 37° C. for 3 days, 5% carbon dioxide; for IC50: read-out: ED50, HeLa cell culture; for minimal effective concentration: read-out: Minimal inhibitory concentration, HeLa cell culture
Procedure: Measurement of the inhibition of cell cultures
HeLa-cell culture was treated with trypsin and adjusted to a cell number of 150,000 cells/ml of fresh medium. The substance was always dissolved in the same quantity of dimethyl sulfoxide and then further diluted with growth medium. 0.1 ml of the substance-dilutions were added to each well of microtiter plates and then 0.2 ml of cell suspension were added (4 wells per dilution). Several growth controls containing 0.1 ml of growth medium instead of 0.1 ml of substance dilution were put up. After careful mixing, the cultures were incubated at 37° C. for 3 days in a 5% carbon dioxide atmosphere. The reading was effected in comparison with these controls. The results were given as the percentage of the deficiency and degeneration compared to the growth control. […] The statements are referred to μg of substance per ml of total medium.

[9] = molecular target: glucose-6-phosphate-dehydrogenase; assay: Inhibition of glucose-6-phosphate-dehydrogenase (G6PDH); type: biochemical
Procedure: Measurement of the inhibition of the glucose-6-phosphatedehydrogenase
The equilibrium was observed:
Glucose-6-phosphate+NADP^+ G6-DH gluconic
acid-6-phosphate+NADPH+H^+
(NADP=nicotinamide-adenine-dinycleotide-phosphate, G6P-DH=gluconic acid-6-phosphate-dehydrogenase)
The formation velocity of NADPH is a measure for the enzyme activity; it may be observed by means of the extinction increase at 340, 334 or 366 nm per unit of time.
0.025 ml of glucose-6-phosphate-dehydrogenase (Boehringer Mannheim) were filled up to 10 ml of distilled water (solution I). 100 mgm of nicotinamide-adenine-dinucleotide-phosphate were dissolved in 13 ml of distilled water (solution II). 47.2 mgm of glucose-6-phosphate were dissolved in further 10 ml of distilled water (solution 3). Simultaneously a buffer solution (solution IV) was prepared as follows: 0.28 gm of triethanolamine-hydrochloride and 1.461 gm of ethylene diaminotetraacetic acid-disodium salt were dissolved in 1 liter of distilled water and adjusted to a pH of 7.6 with sodium hydroxide solution. The substance under test was dissolved in dimethyl formamide or ethanol (solution V). Tested concentrations: 50; 25; 12.5; 6.25; 3.125; 1.56 and 0.78 μg/ml.
0.1 ml of solution I, 0.1 ml of solution II, 2.67 ml of solution IV and 0.03 ml of solution V were mixed and kept at 25° C. for 5 minutes. Then 0.1 ml of solution III was added, mixed and the alteration of extinction was determined spectrophotometrically at 366 nm for 3 minutes.
0.1 ml of solution I, 0.1 ml of solution II, 2.67 ml of solution IV and 0.03 ml of solution V were mixed and kept at 37° C. for 60 minutes. Then 0.1 ml of solution III was added, mixed and the alteration of extinction was measured spectrophotometrically at 366 nm for 3 minutes.
The inhibitory values were calculated from the average values of three measurements (alteration of extinction per minute) compared with controls, which received the pure solvent as the inhibitory solution. Then the ED50 was calculated according to Reed and Muench from the inhibitory values for the various concentrations.

[10] = reduced growth at this concentration

SMILES | MIC [1] [µg/mL] | MIC [2] [µg/mL] | MIC [3] [µg/mL] | MIC [4] [µg/mL] | MIC [5] [µg/mL] | MIC [6] [µg/mL] | MIC [7] [µg/mL] | IC50 [8] [µg/mL] | G6PDH-inhibition Ed50, Immediate Inhibition ([9]; 25° C. for 5 minutes preincubation) [µg/mL] | G6PDH-inhibition Ed50, Inhibition of Incubation ([9]; 37° C. for 60 minutes preincubation) [µg/mL] | Concentration with reduced growth (value in brackets), S.D.T., Streptococcus Aronson [1, 10] [µg/mL] | minimal effective concentration [8] [µg/mL] | Concentration with reduced growth (value in brackets), S.D.T., Corynebacterium acnes [3, 10] [µg/mL]
CCCCCCCCC(C)c1c(O)ccc(C(=O)C(F)(F)F)c1O (stereo not shown) [M] | 20 (≈ 57.7 µM) | 1.25 (≈ 3.61 µM) | 0.31 (≈ 0.895 µM) | 1.25 (≈ 3.61 µM) | ≤ 15.6 | ≤ 15.6 | 250 (≈ 722 µM) | – | – | – | 1.25 | – | –
Cc1c(O)c(Cc2cc(C(=O)C(F)(F)F)c(O)c(C)c2O)cc(C(=O)C(F)(F)F)c1O [S, Methylene-bis-(2,4-dihydroxy-3-methyl-5-trifluoro-acetyl)-benzene] | 1.25 (≈ 2.76 µM) | 1.25 (≈ 2.76 µM) | 0.31 (≈ 0.685 µM) | 1.25 (≈ 2.76 µM) | ≤ 15.6 | ≤ 15.6 | ≤ 15.6 | 3.8 (≈ 8.4 µM) | – | – | – | ≤ 0.78 | –
CC(C)c1c(O)c(Cc2cc(C(=O)C(F)(F)F)c(O)c(C(C)C)c2O)cc(C(=O)C(F)(F)F)c1O [Z, Methylene-bis-(2,4-dihydroxy-3-isopropyl-5-trifluoro-acetyl)-benzene] | – | – | – | – | – | – | – | – | 0.58 | 0.13 | – | – | –

More lines, in order of falling MIC [1], values ahead:

MIC [1] [µg/mL] | MIC [2] [µg/mL] | MIC [3] [µg/mL] | MIC [4] [µg/mL] | MIC [5] [µg/mL] | MIC [6] [µg/mL] | MIC [7] [µg/mL] | IC50 [8] [µg/mL] | G6PDH-inhibition Ed50, Immediate Inhibition ([9]; 25° C. for 5 minutes preincubation) [µg/mL] | G6PDH-inhibition Ed50, Inhibition of Incubation ([9]; 37° C. for 60 minutes preincubation) [µg/mL] | SMILES | Concentration with reduced growth (value in brackets), S.D.T., Streptococcus Aronson [1, 10] [µg/mL] | minimal effective concentration [8] [µg/mL] | Concentration with reduced growth (value in brackets), S.D.T., Corynebacterium acnes [3, 10] [µg/mL]
1.25 (≈ 4.56 µM) | 0.31 (≈ 1.13 µM) | 0.31 (≈ 1.13 µM) | 1.25 (≈ 4.56 µM) | ≤ 15.6 | 62.5 (≈ 228 µM) | ≤ 15.6 | 5.32 (≈ 19.4 µM) | – | – | O=C(c1ccc(O)c(C2CCCC2)c1O)C(F)(F)F [N, 2,4-Dihydroxy-3-cyclopentyl-trifluoroacetophenone] | – | 3.13 | –
0.31 (≈ 1.03 µM) | 0.08 (≈ 0.265 µM) | 1.25 (≈ 4.14 µM) | 0.31 (≈ 1.03 µM) | ≤ 15.6 | ≤ 15.6 | ≤ 15.6 | – | – | – | O=C(c1ccc(O)c(C2CCCCCC2)c1O)C(F)(F)F [O, 2,4-Dihydroxy-3-cycloheptyl-trifluoroacetophenone] | – | – | 0.31
0.31 (≈ 0.645 µM) | 0.005 (≈ 0.0104 µM) | 0.005 (≈ 0.0104 µM) | 0.08 (≈ 0.167 µM) | ≤ 15.6 | ≤ 15.6 | ≤ 15.6 | – | – | – | CCc1cc(C(=O)C(F)(F)F)c(O)c(Cc2c(O)c(CC)cc(C(=O)C(F)(F)F)c2O)c1O [R, Methylene-bis-(2,6-dihydroxy-3-ethyl-5-trifluoro-acetyl)-benzene] | – | – | –
